Laboratory results from ChEMBL document CHEMBL1135843, “A library construction of 2,5-disubstituted pyrrole compounds by using solid/solution-phase syntheses” (Bioorg Med Chem Lett, 2002).

How the values were obtained:
Type in all cases: functional
[1] = Compound was evaluated for its inhibition of LPS-induced mouse B-lymphocyte proliferation. The result is expressed as relative IC50 i.e., IC50 of compound / All Trans Retinoic Acid IC50
[2] = Inhibition of LPS-induced mouse B-lymphocyte proliferation. The result is expressed as relative IC50 i.e., IC50 of compound/all-trans retinoic acid IC50.
[3] = Inhibition of LPS-induced mouse B-lymphocyte proliferation in relation to IC50 of all-trans retinoic acid.
[4] = Compound was evaluated for its inhibition of LPS-induced mouse B-lymphocyte proliferation

Structure (SMILES) | Relative IC50 [2] | Relative IC50 [3] | other results
Cc1ccc(C)c2oc(-c3ccc(-c4ccc(C(=O)O)cc4)[nH]3)cc12 | – | – | Relative IC50 [1]: 0.76
COc1cc(C(=O)O)ccc1-c1ccc(-c2cc3cccc(Cl)c3o2)[nH]1 | 170 | – | –
O=C(O)c1ccc(-c2ccc(-c3cc4cccc(Cl)c4o3)[nH]2)c(Cl)c1 | 300 | – | –
Cc1ccc(Cl)c2sc(-c3ccc(-c4ccc(C(=O)O)s4)[nH]3)cc12 | 480 | – | –
O=C(O)c1ccc(-c2ccc(-c3cc4c(Cl)ccc(Cl)c4o3)[nH]2)s1 | 62 | – | –
CCCc1cc(OC)cc2cc(-c3ccc(-c4cc(C)c(C(=O)O)cc4C)[nH]3)oc12 | – | >1000 | –
CCCc1cccc2cc(-c3ccc(-c4cc(C)c(C(=O)O)cc4C)[nH]3)oc12 | – | >1000 | –
CCc1ccc(OC)c2cc(-c3ccc(-c4ccc5cc(C(=O)O)ccc5c4)[nH]3)oc12 | – | >1000 | –
Cc1cc(C)c2oc(-c3ccc(-c4ccc(C(=O)O)s4)[nH]3)cc2c1C | 230 | – | –
O=C(O)c1ccc(-c2ccc(-c3cc4c(Cl)ccc(Cl)c4o3)[nH]2)cc1 | – | – | Relative IC50 [1]: 1.3
Cc1cc(C)c2oc(-c3ccc(-c4ccc(C(=O)O)o4)[nH]3)cc2c1C | – | >1000 | –
O=C(O)c1ccc(-c2ccc(-c3cc4ccc5ccccc5c4o3)[nH]2)c(Br)c1 | 1500 | – | –
Cc1ccc(C)c2oc(-c3ccc(-c4ccc5cc(C(=O)O)ccc5c4)[nH]3)cc12 | – | >1000 | –
Cc1cc(-c2ccc(-c3cc4c(C)c(C)cc(C)c4o3)[nH]2)c(C)cc1C(=O)O | – | >1000 | –
CCc1ccc(OC)c2cc(-c3ccc(-c4ccc(C(=O)O)s4)[nH]3)oc12 | – | >1000 | –
Cc1ccc(C)c2oc(-c3ccc(-c4ccc(C(=O)O)cc4F)[nH]3)cc12 | 15 | – | –
CCc1ccc(OC)c2cc(-c3ccc(-c4ccc(C(=O)O)c5ccccc45)[nH]3)oc12 | – | >1000 | –
Cc1cc(C)c2oc(-c3ccc(-c4ccc(C(=O)O)cc4)[nH]3)cc2c1C | – | – | IC50 [4]: 2.2 nM
CCCc1ccc(OC)c2cc(-c3ccc(-c4cc(C)c(C(=O)O)cc4C)[nH]3)oc12 | – | >1000 | –
CCc1ccc(OC)c2cc(-c3ccc(-c4ccc(C(=O)O)cc4Br)[nH]3)oc12 | 140 | – | –

Structure (SMILES) | Relative IC50 [2] | Relative IC50 [3] | other results
Cc1cc(C)c2oc(-c3ccc(-c4ccc(C(=O)O)c5ccccc45)[nH]3)cc2c1C | – | >1000 | –
Cc1ccc(C)c2oc(-c3ccc(-c4cccc(C(=O)O)c4)[nH]3)cc12 | 2100 | – | –
O=C(O)c1cccc(-c2ccc(-c3cc4cccc(Cl)c4s3)[nH]2)c1 | – | >1000 | –
O=C(O)c1ccc(-c2ccc(-c3cc4c(Cl)ccc(Cl)c4o3)[nH]2)c(Cl)c1 | 240 | – | –
O=C(O)c1ccc2cc(-c3ccc(-c4cc5c(Cl)ccc(Cl)c5s4)[nH]3)ccc2c1 | – | >1000 | –
Cc1cc(C)c2oc(-c3ccc(-c4ccc5cc(C(=O)O)ccc5c4)[nH]3)cc2c1C | – | >1000 | –
Cc1ccc(C)c2oc(-c3ccc(-c4ccc(C(=O)O)c5ccccc45)[nH]3)cc12 | – | >1000 | –
Cc1ccc(C)c2oc(-c3ccc(-c4ccc(C(=O)O)s4)[nH]3)cc12 | 42 | – | –
O=C(O)c1ccc(-c2ccc(-c3cc4c(Cl)ccc(Cl)c4s3)[nH]2)c2ccccc12 | – | >1000 | –
Cc1ccc(C)c2oc(-c3ccc(-c4ccc(C(=O)O)o4)[nH]3)cc12 | – | >1000 | –
CCCc1ccc(OC)c2cc(-c3ccc(-c4ccc(C(=O)O)s4)[nH]3)oc12 | – | >1000 | –
CCCc1cccc2cc(-c3ccc(-c4ccc(C(=O)O)c5ccccc45)[nH]3)sc12 | – | >1000 | –
O=C(O)c1ccc(-c2ccc(-c3cc4c(Cl)ccc(Cl)c4o3)[nH]2)c(Br)c1 | 45 | – | –
Cc1cc(C)c2oc(-c3ccc(-c4ccc(C(=O)O)cc4Br)[nH]3)cc2c1C | 42 | – | –
Cc1ccc(Cl)c2sc(-c3ccc(-c4ccc(C(=O)O)c5ccccc45)[nH]3)cc12 | – | >1000 | –
Cc1cc(-c2ccc(-c3cc4cc(Cl)ccc4o3)[nH]2)c(C)cc1C(=O)O | – | >1000 | –
COc1cc(C(=O)O)ccc1-c1ccc(-c2cc3c(Cl)ccc(Cl)c3o2)[nH]1 | 210 | – | –
Cc1cc(-c2ccc(-c3cc4cc(Cl)cc(Cl)c4o3)[nH]2)c(C)cc1C(=O)O | – | >1000 | –
O=C(O)c1ccc(-c2ccc(-c3cc4cc(Cl)ccc4o3)[nH]2)c2ccccc12 | – | >1000 | –
O=C(O)c1ccc(-c2ccc(-c3cc4cccc(Cl)c4o3)[nH]2)c(F)c1 | 95 | – | –

Structure (SMILES) | Relative IC50 [2] | Relative IC50 [3] | other results
Cc1ccc(Cl)c2oc(-c3ccc(-c4ccc(C(=O)O)cc4Br)[nH]3)cc12 | 16 | – | –
CC1=C(/C=C/C(C)=C/C=C/C(C)=C/C(=O)O)C(C)(C)CCC1 [TRETINOIN] | 1 | – | Relative IC50 [1]: 0.65
CCCc1ccc(OC)c2cc(-c3ccc(-c4ccc(C(=O)O)c5ccccc45)[nH]3)oc12 | – | >1000 | –
CCc1ccc(OC)c2cc(-c3ccc(-c4cc(C)c(C(=O)O)cc4C)[nH]3)oc12 | – | >1000 | –
CCc1ccc(OC)c2cc(-c3ccc(-c4ccc(C(=O)O)o4)[nH]3)oc12 | – | >1000 | –
CCCc1ccc(OC)c2cc(-c3ccc(-c4ccc(C(=O)O)o4)[nH]3)oc12 | – | >1000 | –
O=C(O)c1ccc(-c2ccc(-c3cc4cccc(Cl)c4o3)[nH]2)c(Br)c1 | 31 | – | –
Cc1cc(-c2ccc(-c3cc4c(C)ccc(C)c4o3)[nH]2)c(C)cc1C(=O)O | – | >1000 | –
COc1cc(C(=O)O)ccc1-c1ccc(-c2cc3c(C)ccc(C)c3o2)[nH]1 | 47 | – | –
CCCc1ccc(OC)c2cc(-c3ccc(-c4ccc5cc(C(=O)O)ccc5c4)[nH]3)oc12 | – | >1000 | –
CCCc1cccc2cc(-c3ccc(-c4ccc(C(=O)O)s4)[nH]3)sc12 | 600 | – | –
CCCc1cccc2cc(-c3ccc(-c4ccc5cc(C(=O)O)ccc5c4)[nH]3)oc12 | – | >1000 | –
O=C(O)c1ccc(-c2ccc(-c3cc4c(Cl)ccc(Cl)c4o3)[nH]2)c(F)c1 | 64 | – | –
O=C(O)c1ccc(-c2ccc(-c3cc4cc(Cl)ccc4o3)[nH]2)s1 | – | >1000 | –
Cc1ccc(C)c2oc(-c3ccc(-c4ccc(C(=O)O)cc4Br)[nH]3)cc12 | 18 | – | –
O=C(O)c1ccc(-c2ccc(-c3cc4cc(Cl)ccc4o3)[nH]2)o1 | – | >1000 | –
Cc1ccc(Cl)c2oc(-c3ccc(-c4ccc5cc(C(=O)O)ccc5c4)[nH]3)cc12 | – | >1000 | –
Cc1ccc(C)c2oc(-c3ccc(-c4ccc(C(=O)O)cc4Cl)[nH]3)cc12 | 23 | – | –
